Experimental data as given in patent US20150018294A1, “MODULATORS OF TOUSLED KINASE IN CELLULAR PROCESSES” (priority 2012, published 2015).
Entries after “also recorded” stand apart in the source; their conditions may differ.

Experiments:
TLK1B = molecular target: T1, TLK1B (Homo sapiens, UniProt Q9UKI8); test: TLK1B kinase assay (auto kinase assay with γ 32P ATP; recombinant TLK1B with Rad9 peptide); assay type: biochemical; settings: for activity on TLK (TLK kinase assays): inactive defined at concentrations <10 μM
T1 sequence (Q9UKI8 1-549 isoform Q9UKI8-3): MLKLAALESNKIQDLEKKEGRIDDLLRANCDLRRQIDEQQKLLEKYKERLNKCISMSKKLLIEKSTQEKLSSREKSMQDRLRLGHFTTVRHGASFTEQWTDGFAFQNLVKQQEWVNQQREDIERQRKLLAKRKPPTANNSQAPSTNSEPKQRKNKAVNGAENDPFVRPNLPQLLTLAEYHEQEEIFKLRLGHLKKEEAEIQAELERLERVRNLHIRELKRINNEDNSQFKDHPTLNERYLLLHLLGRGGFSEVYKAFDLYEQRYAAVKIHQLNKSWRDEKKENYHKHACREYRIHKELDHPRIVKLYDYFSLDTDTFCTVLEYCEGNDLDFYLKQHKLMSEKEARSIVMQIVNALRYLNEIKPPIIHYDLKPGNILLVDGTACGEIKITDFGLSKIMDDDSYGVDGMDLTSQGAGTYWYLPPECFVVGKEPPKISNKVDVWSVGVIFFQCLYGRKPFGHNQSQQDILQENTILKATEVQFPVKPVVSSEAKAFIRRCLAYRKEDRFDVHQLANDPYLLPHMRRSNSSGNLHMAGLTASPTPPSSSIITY
Procedure: To identify inhibitors of TLK, we developed a high throughput screen with recombinant TLK1B, a small Rad9 peptide and the ADP Hunter reagent (DiscoveRx). Using this assay, the Innovative North Louisiana Experimental Therapeutics (INLET) screening core (affiliated with the FWCC) screened the Prestwick library, two other proprietary libraries, and a subset of the ChemDiv library (˜6000 compounds).
Following the initial fluorescent screen at a compound concentration of ˜5 μM, potential hits were tested with a more sensitive auto kinase assay with γ 32P ATP. Inhibition of auto phosphorylation was confirmed by TCA precipitable counts (FIG. 1A). The inhibitors are highly specific for TLKs. […] We have additional evidence for direct binding of these compounds to the recombinant protein (to be published elsewhere).
TlK1 immune complexes isolated from […] protein extracts using abtiserum made in our lab and Protein A beads. Adsorbed proteins were washed twice in kinase assay buffer (KAB) (50 mM HEPES pH 7.2, 10 mM MgCl2, 5 mM MnCl2, 2.5 mM EGTA, 1 mM DTT, 1 mM NaF, 0.2 mM sodium o vanadate, […] leupeptin, 2 g/ml aprotinin) and incubated for 15-30 min at 30° C. in KAB supplemented with 10 µM ATP, 10 Ci [−32P]ATP (>5000 Ci/mmol, GE). The proteins were separated on 10% SDS-PAGE gels, transferred to nitrocellulose before exposure on a Phosphorlmager; and then processed for WB with TLK1 antiserum. For kinase assays with recombinant TLK1B protein, the reactions were similar, and carried out with 10 ng TLK1B and 50 ng Rad9 peptide substrate. These were carried out to confirm the initial “hits” from the screen and further to obtain accurate ID50 values for the various inhibitors.

D2 receptor = D2 receptor (Homo sapiens, UniProt P14416); settings: cited from earlier work
[1] = tested on: Rad9 S328 phosphorylation in DU145 cells; test: Rad9 S328 phosphorylation and checkpoint markers in DU145 cells after H2O2; assay type: cell-based, human
Procedure: The inhibitors worked as expected on the pattern of phosphorylation of Rad9 […]. After treatment of DU145 cells with H2O2 for 10 min to generate breaks, there is a corresponding wave of phosphorylation and dephosphorylation of […] after completion of repair (FIG. 5) that matches the pattern of activity of TLK1/1B TLKs are the only known kinases that phosphorylate Rad9 […] 4. Generation of DSBs causes transient inhibition of TLK1 and simultaneous synthesis of TLK1B, which then results in hyper phosphorylation of […] upon restoration of kinase activity [FIG. 5A; 5]. Once H2O2 is degraded and most DNA breaks are repaired, the phosphorylation returns to baseline. The inhibitors, PPH (LS125) in particular, blocked the activation of TLK and consequent phosphorylation of Rad9 ([…]) (5C). […] FIG. 5). A key role of TLKs is then to participate in restoration of cell cycle upon completion of repair. Interfering with this process has dire consequences for cell viability; more likely for cancer cells that are genetically more unstable and already have defects in DNA repair functions, if not just for their reliance on these kinases.

cell cycle = test: Cell cycle and apoptosis, with or without doxo; assay type: cell-based; settings: inhibitor alone, 15 μM
Text: A matching experimental set was processed by WB for evidence of cleaved PARP, and possible effects on ClnD1 accumulation, which occurs in late G1 and throughout S phases. […] The

[2] = tested on: stalled replication forks; test: Restart of stalled replication forks after release from hydroxyurea; assay type: cell-based; settings: after release from hydroxyurea (HU)
DNA PK = DNA PK (Homo sapiens, UniProt P78527); settings: cited from earlier work
PC 3 (human CaP cells) [3] = settings: THD 0.25 mg daily oral gavage; doxo 1 mg/kg intraperitoneal days 54, 68, 95
Procedure: PC 3 model. A study was undertaken to investigate the in vivo efficacy of THD compared to doxo and to determine any sensitization conferred to the tumor cells by treatment with a combination of the two drugs. Eighty male SCID/bg mice received 1×106 PC 3 (human CaP cells) cells subcutaneous into their flanks. At day 49 post s inoculation, we began weekly tumor measurements by caliper [volume=(L×W2)[…])]. […] At day 54, daily oral gavages of THD (0.25 mg in water) were given, and intraperitoneal injections of doxo (1 mg/kg; see arrows in FIG. 7) were at days 54, 68, and 95 (last day before euthanasia). […] In any case, the tumors were excised at the end of the experiment (before the control group tumors reached the preset end point of 1500 mm3) and processed for IHC analysis. The mice were dosed on last day before euthanasia with doxo to induce bona fide DSBs.

PC 3 (human CaP cells) [4] = test: IHC analysis of excised PC 3 tumors; set-up: species or system SCID/bg mice; settings: mouse, in vivo
Text: Some features are immediately noticeable even upon H&E staining that could explain the tumor growth patterns. […] We interpret this as being the result of accumulation of DNA damage, including DSBs, which are not promptly repaired, even as they may be expected to occur spontaneously in many cells in the harsh environment of tumor growth. This has in fact been reported before and was attributed to localized hypoxia 24. […] The staining was not negative, as one may think, since inspection at higher magnification confirmed the expected pattern of exclusively nuclear staining and lower intensity in nucleoli. […] This is consistent with the γH2AX pattern, showing a large number of cells harboring repair foci, and thus likely arrested in replication (or progressing slowly through S phase). To further establish this, we looked at presence of RPA foci, which is indicative of stalled forks25. As expected from the large number of proliferating cells (PCNA positive) in control tumors, RPA1 Staining was very strong, and particularly in focal areas. RPA1 staining in tumors from doxo treated mice was interesting. […] In tumors from mice treated with doxo+THD, staining for RPA was very weak and consistent to that obtained for PCNA. […] However, we did stain for P Rad9 (S328) to confirm that the effects were mediated via TLK inhibition, in what we propose is part of a checkpoint deactivation mechanism following repair of spontaneous DNA damage. Indeed, numerous cells stained lightly for P Rad9 in untreated tumor cells in fact, they are perhaps a larger proportion than those staining for γH2AX that presumably represent cells with unrepaired DSBs.

MDA 231-Luc = MDA 231-Luc xenograft model; assay type: in vivo; settings: female SCID/bg mice, treatment groups as in PC 3 study
Text: We used the breast cancer model cell line MDA 231-Luc, for more precise quantitation of tumor growth (photon emission is linear with the tumor cell number). Female SCID/bg mice (N=8 per group) received 1×10^6 cells and when the tumors reached ˜500 mm3 (˜104 photons/sec) they were assigned to four treatment groups, as in the study above (Sup. FIG. 4).

GST TLK1B = molecular target: T2, GST TLK1B (Homo sapiens, UniProt Q9UKI8); test: Binding to GST TLK1B affixed to Immobilon filter; settings: color will not wash out
T2 sequence (Q9UKI8 1-549 isoform Q9UKI8-3): T1 sequence (Q9UKI8 1-549 isoform Q9UKI8-3)
Text: To determine how structurally related antipsychotic drugs might differ from each other and produce different biological effects, we analyzed optimized drug structures by quantum mechanics (QM) methods. Drugs of interest were built with MarvinSketch 5.3.2 (ChemAxon) for initial optimization of the 3D structure. For the panels shown here (Sup. FIG. 1), orbitals from the highest occupied molecular orbital (HOMO) and the lowest unoccupied molecular orbital (LUMO) have been depicted. […] The planar heterocyclic ring structure of staurosporine and its out of plane aminated glucose moiety are reminiscent of the structure of the phenothiazines. Bulky substituents on the main phenothiazine ring, such as fluorine groups, may only be tolerated in a certain orientation relative to the alkyl side chain, depending upon the reactivity of the side chain. Moreover, the fit at the binding site will be determined by whether active groups in the drugs (rings vs. side chains) serve as donors or acceptors in non bond interactions (e.g., it bonding and van der Waals interactions). While QM characterization of the drugs is not definitive, certain trends emerged from this analysis. In Sup. […] In fact, methylene blue, which stains nucleic acids but not most proteins, remains so tightly bound to GST TLK1B that after its affixation to an Immobilon filter the color bound to the protein will not wash out.

D2 receptor, sequence (P14416 whole entry): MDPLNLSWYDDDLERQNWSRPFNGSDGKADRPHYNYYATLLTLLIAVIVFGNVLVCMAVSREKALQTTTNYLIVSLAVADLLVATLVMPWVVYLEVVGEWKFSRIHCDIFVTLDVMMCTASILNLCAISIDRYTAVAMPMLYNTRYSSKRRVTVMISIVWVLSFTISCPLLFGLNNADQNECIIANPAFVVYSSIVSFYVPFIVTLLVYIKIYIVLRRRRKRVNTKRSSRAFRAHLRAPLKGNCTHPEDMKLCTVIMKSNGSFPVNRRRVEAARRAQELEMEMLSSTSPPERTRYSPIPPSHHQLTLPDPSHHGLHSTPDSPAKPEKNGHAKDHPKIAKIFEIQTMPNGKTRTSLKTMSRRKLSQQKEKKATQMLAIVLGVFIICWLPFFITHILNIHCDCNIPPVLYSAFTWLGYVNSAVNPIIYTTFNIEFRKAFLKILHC

OCCN1CCN(CCCN2c3ccccc3Sc3ccc(C(F)(F)F)cc32)CC1 [FF, fluphenazine]
activity on TLK (TLK kinase assays) (TLK1B): inactive for TLK
D2 receptor antagonism (D2 receptor): more potent D2 receptor antagonist than either TFP (active) or THD

CN1CCN(CCCN2c3ccccc3Sc3ccc(Cl)cc32)CC1 [PCP, prochlorperazine]
activity on TLK (TLK kinase assays) (TLK1B): inactive

CN(C)CCCN1c2ccccc2Sc2ccccc21 [PMZ, promazine]
activity on TLK (TLK kinase assays) (TLK1B): identified as TLK inhibitors
D2 receptor antagonism (D2 receptor): does not have much activity as a D2 antagonist

OCCN1CCN(CCCN2c3ccccc3Sc3ccc(Cl)cc32)CC1 [PPH, perphenazine]
activity on TLK (TLK kinase assays) (TLK1B): identified as TLK inhibitors
Chk1 activation (P Chk1 S345) ([1]; H2O2): persistent activation of Chk1
cleavage of cdc25A ([1]; H2O2): elicited much faster
phosphorylation of Rad17 ([1]; H2O2): prolonged phosphorylation of Rad17
activation of TLK and phosphorylation of Rad9 (S328) ([1]; H2O2 for 10 min): blocked the activation of TLK and consequent phosphorylation of Rad9 (S328)

CCSc1ccc2c(c1)N(CCCN1CCN(C)CC1)c1ccccc1S2 [TEZ, thiethylperazine]
activity on TLK (TLK kinase assays) (TLK1B): identified as TLK inhibitors

CN1CCN(CCCN2c3ccccc3Sc3ccc(C(F)(F)F)cc32)CC1 [TFP, trifluoperazine]
activity on TLK (TLK kinase assays) (TLK1B): active; also recorded: identified as TLK inhibitors
inhibition of TLKs (TLK1B; sub toxic concentrations 10-20 μM): completely inhibit TLKs
(apoptotic) sub G1 cells (cell cycle): very modest increase
cleaved PARP (cell cycle): very modest evidence of cleaved PARP
effect on the cell cycle (cell cycle): little effect on the cell cycle
restart of stalled replication forks and linked phosphorylation of Rad9 (S328) [2]: greatly extends this process
DNA PK inhibition (DNA PK; TFP 10-20 μM): not inhibited
reported inhibition of DNA PK in vitro, concentration (DNA PK; in vitro): 0.1 to 0.2 mM

COc1cccc2c1C(=O)c1c(O)c3c(c(O)c1C2=O)C[C@@](O)(C(=O)CO)C[C@@H]3O[C@H]1C[C@H](N)[C@H](O)[C@H](C)O1 [doxo, doxorubicin]
tumor growth (PC 3 (human CaP cells) [3]): definite trend was seen for doxo reducing tumor growth
P Rad9 (S328) staining (PC 3 (human CaP cells) [4]): much stronger staining for P Rad9
RPA staining (PC 3 (human CaP cells) [4]): overall staining was weaker for most areas of the section
cellular density of the tumor (H&E staining) (PC 3 (human CaP cells) [4]): only slightly decreased the cellular density of the tumor
γH2AX positive cells (PC 3 (human CaP cells) [4]): a large proportion
tumor growth (photon emission) (MDA 231-Luc): insufficient to stop growth of tumors

CN(C)c1ccc2nc3ccc(=[N+](C)C)cc-3sc2c1 [methylene blue]
activity on TLK (TLK kinase assays) (TLK1B): highly inhibitory
binding to GST TLK1B (GST TLK1B): tightly bound

c1ccc2c(c1)Nc1ccccc1S2 [phenothiazine]
activity on TLK (TLK kinase assays) (TLK1B): highly inhibitory
